Laboratory results published in EP0726072A2, “Composition for the treatment of hypertension and congestive heart failure, containing an angiotensin II antagonist and an endopeptidase inhibitor” (BRISTOL-MYERS SQUIBB COMPANY, priority 1995, dated 1996).

Experiments:
angiotensin II receptors = assay: Inhibition of the pressor response to angiotensin II in conscious cardiomyopathic hamsters; format: in vivo, hamsters of the BIO TO-2 strain; conditions: for Change in mean arterial pressure: pressor response to angiotensin II 100 ng/kg i.v.
Experimental: The studies described in this experiment were conducted in male hamsters of the BIO TO-2 strain when they were approximately 260 days of age and weighed on average 115 g. These animals develop a genetic form of cardiomyopathy that progresses uniformly among animals through different stages of heart failure. By 240 - 300 days of age the cardiomyopathic hamsters are characterized (as compared with control hamsters) by low mean arterial pressure, a 40% reduction in cardiac output and a decrease in renal blood flow. They display elevated cardiac filling pressure, depressed ventricular function, increased peripheral vascular resistance and have an 8-10-fold increase in plasma atrial natriuretic peptide concentration.
The experiments were conducted in conscious, unrestrained, cardiomyphathic hamsters three hours after placement of cardivascular catheters using brief anesthesia. The catheters allowed measurement of mean arterial pressure, left ventricular end diastolic pressure, left ventricular systolic pressure and heart rate, and provided a means for the administration of agents intravenously.
Preliminary experiments were conducted in conscious cardiomyopathic hamsters to determine a dose regimen of BMS 186295 that would nearly completely block the pressor response to angiotensin II for at least two hours. The pressor responses to two challenges of angiotensin II (100 ng/kg, i.v. dissolved in 0.9% sodium chloride, 1 ml/kg) were determined. This dose of angiotensin II produced over a 30% increase in mean arterial pressure. Based on the preliminary experiments, BMS 186295 was administered to 5 cardiomyopathic hamsters at 30 µmol/kg, i.v. followed by continuous i.v. infusion at 1 µmol/kg per min. Challenges of angiotensin II were then repeated at 10- to 30-minute intervals up to 150 minutes following the bolus injection of BMS 186295.

1K1C hypertensive dogs = assay: Haemodynamic, renal and hormonal effects in conscious 1-kidney-1-clip hypertensive dogs; format: in vivo
Experimental: The studies described in this experiment were conducted in dogs that had been rendered hypertensive by prior unilateral nephrectomy and constriction of the remaining renal artery. This model is characterized by normal basal levels of plasma renin activity and is relatively resistant to the anti-hypertensive activity of angiotensin converting enzyme inhibitors and AT1 receptor antagonists.
The following experiments were conducted in fasted 1K1C hypertensive dogs lightly restrained in standard canine slings. An indwelling arterial catheter was accessed via a subcutaneous port for measurement of blood pressure via a Gould-Statham pressure transducer. Mean arterial pressure (MAP) was continuously recorded on a Gould chart writer and stored electronically using a Po-Ne-Mah data acquisition system. During each study, urine was collected at 20 minute intervals via a Foley bladder catheter for determination of urine volume. The concentrations of urinary sodium and potassium were measured using ion-selective electrodes and their rates of urinary excretion (µEq/min) were calculated. Glomerular filtration rate (GFR) and effective renal plasma flow (ERPF) were determined by the renal clearances of exogenous creatinine and para-aminohippuric acid (PAH), respectively. The concentrations of creatinine and PAH in sequential samples of urine and plasma were determined by spectrophotometric assays and the clearances were calculated by the standard formula.
Arterial blood samples were drawn at the end of the control period and at 60 minute intervals thereafter for determination of the plasma concentrations of atrial natriuretic peptide (ANP), cyclic GMP and plasma renin activity (PRA) by separate radioimmunoassays. The plasma and urine samples were preserved and the assays were conducted according to standard radioimmunoassay procedures. Urinary excretion rates of cyclic GMP and ANP were calculated and expressed as pmol/min and fmol/min, respectively.
In each study, baseline measurements were obtained during two 20 minute control periods. One of the treatments was then administered and sampling continued at 20 minute intervals for three hours.
To minimize inter-animal variability, each data point was expressed as the change from the average control value for that parameter. Significant differences among treatments were identified by analysis of variance for repeated measures. […] Results are given as mean ± SEM.

[1] = 20 min after treatment, 30 µmol/kg iv of each agent
[2] = 40 min after treatment, 30 µmol/kg iv of each agent
[3] = 60 min after treatment, 30 µmol/kg iv of each agent
[4] = 80 min after treatment, 30 µmol/kg iv of each agent
[5] = 100 min after treatment, 30 µmol/kg iv of each agent
[6] = 120 min after treatment, 30 µmol/kg iv of each agent
[7] = 140 min after treatment, 30 µmol/kg iv of each agent
[8] = 160 min after treatment, 30 µmol/kg iv of each agent
[9] = 180 min after treatment, 30 µmol/kg iv of each agent

CCCCC1=NC2(CCCC2)C(=O)N1Cc1ccc(-c2ccccc2-c2nnn[nH]2)cc1 [BMS 186295, 2-butyl-6,7,8,9-tetrahydro-3-[[2'-(1H-tetrazol-5-yl)[1,1'-biphenyl]-4-yl]-methyl]-1,3-diazaspiro[4.4]nonan-4-one]
pressor responses to angiotensin II, of the response before the administration of the inhibitor (angiotensin II receptors; following 30 µmol/kg, i.v. then 1 µmol/kg per min, up to 150 minutes): less than 17% | Change in mean arterial pressure (angiotensin II receptors; 10′ after 30 µmol/kg, i.v. followed by 1 µmol/kg/min, i.v.): 3±2 mm Hg | Change in mean arterial pressure (angiotensin II receptors; 20′ after 30 µmol/kg, i.v. followed by 1 µmol/kg/min, i.v.): 2±1 mm Hg | Change in mean arterial pressure (angiotensin II receptors; 30′ after 30 µmol/kg, i.v. followed by 1 µmol/kg/min, i.v.): 3±2 mm Hg | Change in mean arterial pressure (angiotensin II receptors; 40′ after 30 µmol/kg, i.v. followed by 1 µmol/kg/min, i.v.): 2±1 mm Hg | Change in mean arterial pressure (angiotensin II receptors; 50′ after 30 µmol/kg, i.v. followed by 1 µmol/kg/min, i.v.): 1±1 mm Hg | Change in mean arterial pressure (angiotensin II receptors; 60′ after 30 µmol/kg, i.v. followed by 1 µmol/kg/min, i.v.): 4±1 mm Hg | Change in mean arterial pressure (angiotensin II receptors; 70′ after 30 µmol/kg, i.v. followed by 1 µmol/kg/min, i.v.): 5±2 mm Hg | Change in mean arterial pressure (angiotensin II receptors; 80′ after 30 µmol/kg, i.v. followed by 1 µmol/kg/min, i.v.): 4±1 mm Hg | Change in mean arterial pressure (angiotensin II receptors; 90′′ after 30 µmol/kg, i.v. followed by 1 µmol/kg/min, i.v.): 3±1 mm Hg | Change in mean arterial pressure (angiotensin II receptors; 150′ after 30 µmol/kg, i.v. followed by 1 µmol/kg/min, i.v.): 2±1 mm Hg | Change in mean arterial pressure (angiotensin II receptors; 120 min after 30 µmol/kg, i.v. followed by 1 µmol/kg/min, i.v.): 3±1 mm Hg | Change in mean arterial pressure (angiotensin II receptors; -10′, before BMS-186295): 31±3 mm Hg | Change in mean arterial pressure (angiotensin II receptors; -20′, before BMS-186295): 29±2 mm Hg | increase in the amount of sodium excreted during the 3 hours after injection (1K1C hypertensive dogs; 30 µmol/kg iv of each agent, cumulative over 3 hours): 5.4±1.0 mEq/3 hr | ANP Excretion, Change from control (1K1C hypertensive dogs; [1]): -0.7 ± 0.5 fmol/min | Cyclic GMP Excretion, Change from control (1K1C hypertensive dogs; [1]): -372 ± 240 pmol/min | Effective Renal Plasma Flow, Change from control (1K1C hypertensive dogs; [1]): -68 ± 30 mL/min | Glomerular Filtration Rate, Change from control (1K1C hypertensive dogs; [1]): -4 ± 2 mL/min | Mean Arterial Pressure, Change from control (1K1C hypertensive dogs; [1]): -1±1 mm Hg | Sodium Excretion, Change from control (1K1C hypertensive dogs; [1]): 23±9 µEq/min | Urine Volume, Change from control (1K1C hypertensive dogs; [1]): 0.01 ± 0.07 mL/min | ANP Excretion, Change from control (1K1C hypertensive dogs; [2]): -0.6 ± 0.5 fmol/min | Cyclic GMP Excretion, Change from control (1K1C hypertensive dogs; [2]): -277 ± 255 pmol/min | Effective Renal Plasma Flow, Change from control (1K1C hypertensive dogs; [2]): -54 ± 35 mL/min | Glomerular Filtration Rate, Change from control (1K1C hypertensive dogs; [2]): -2 ± 5 mL/min | Mean Arterial Pressure, Change from control (1K1C hypertensive dogs; [2]): -10±1 mm Hg | Sodium Excretion, Change from control (1K1C hypertensive dogs; [2]): 41±13 µEq/min | Urine Volume, Change from control (1K1C hypertensive dogs; [2]): 0.09 ± 0.14 mL/min | ANP Excretion, Change from control (1K1C hypertensive dogs; [3]): -0.2 ± 0.3 fmol/min | Cyclic GMP Excretion, Change from control (1K1C hypertensive dogs; [3]): -150 ± 203 pmol/min | Effective Renal Plasma Flow, Change from control (1K1C hypertensive dogs; [3]): -35 ± 24 mL/min | Glomerular Filtration Rate, Change from control (1K1C hypertensive dogs; [3]): 6 ± 0 mL/min | Mean Arterial Pressure, Change from control (1K1C hypertensive dogs; [3]): -8±2 mm Hg | Plasma Renin Activity, Change from control (1K1C hypertensive dogs; [3]): 1.28±0.51 pmol AI/ml/hr | Sodium Excretion, Change from control (1K1C hypertensive dogs; [3]): 36±8 µEq/min | Urine Volume, Change from control (1K1C hypertensive dogs; [3]): 0.12 ± 0.07 mL/min | ANP Excretion, Change from control (1K1C hypertensive dogs; [4]): -0.4 ± 0.3 fmol/min | Cyclic GMP Excretion, Change from control (1K1C hypertensive dogs; [4]): -309 ± 199 pmol/min | Effective Renal Plasma Flow, Change from control (1K1C hypertensive dogs; [4]): -13 ± 9 mL/min | Glomerular Filtration Rate, Change from control (1K1C hypertensive dogs; [4]): 5 ± 2 mL/min | Mean Arterial Pressure, Change from control (1K1C hypertensive dogs; [4]): -5±2 mm Hg | Sodium Excretion, Change from control (1K1C hypertensive dogs; [4]): 27±6 µEq/min | Urine Volume, Change from control (1K1C hypertensive dogs; [4]): 0.05 ± 0.06 mL/min | ANP Excretion, Change from control (1K1C hypertensive dogs; [5]): -0.6 ± 0.4 fmol/min | Cyclic GMP Excretion, Change from control (1K1C hypertensive dogs; [5]): -266 ± 193 pmol/min | Effective Renal Plasma Flow, Change from control (1K1C hypertensive dogs; [5]): -1 ± 10 mL/min | Glomerular Filtration Rate, Change from control (1K1C hypertensive dogs; [5]): 3 ± 4 mL/min | Mean Arterial Pressure, Change from control (1K1C hypertensive dogs; [5]): -4±1 mm Hg | Sodium Excretion, Change from control (1K1C hypertensive dogs; [5]): 22±3 µEq/min | Urine Volume, Change from control (1K1C hypertensive dogs; [5]): -0.02 ± 0.09 mL/min | ANP Excretion, Change from control (1K1C hypertensive dogs; [6]): -0.5 ± 0.4 fmol/min | Cyclic GMP Excretion, Change from control (1K1C hypertensive dogs; [6]): -283 ± 236 pmol/min | Effective Renal Plasma Flow, Change from control (1K1C hypertensive dogs; [6]): -8 ± 17 mL/min | Glomerular Filtration Rate, Change from control (1K1C hypertensive dogs; [6]): 4 ± 3 mL/min | Mean Arterial Pressure, Change from control (1K1C hypertensive dogs; [6]): -1±2 mm Hg | Plasma Renin Activity, Change from control (1K1C hypertensive dogs; [6]): 1.49±0.57 pmol AI/ml/hr | Sodium Excretion, Change from control (1K1C hypertensive dogs; [6]): 30±4 µEq/min | Urine Volume, Change from control (1K1C hypertensive dogs; [6]): -0.02 ± 0.10 mL/min | ANP Excretion, Change from control (1K1C hypertensive dogs; [7]): -0.6 ± 0.4 fmol/min | Cyclic GMP Excretion, Change from control (1K1C hypertensive dogs; [7]): -449 ± 206 pmol/min | Effective Renal Plasma Flow, Change from control (1K1C hypertensive dogs; [7]): 8 ± 3 mL/min | Glomerular Filtration Rate, Change from control (1K1C hypertensive dogs; [7]): 0 ± 5 mL/min | Mean Arterial Pressure, Change from control (1K1C hypertensive dogs; [7]): -1±2 mm Hg | Sodium Excretion, Change from control (1K1C hypertensive dogs; [7]): 28±7 µEq/min | Urine Volume, Change from control (1K1C hypertensive dogs; [7]): -0.07 ± 0.12 mL/min | ANP Excretion, Change from control (1K1C hypertensive dogs; [8]): -0.5 ± 0.4 fmol/min | Cyclic GMP Excretion, Change from control (1K1C hypertensive dogs; [8]): -391 ± 199 pmol/min | Effective Renal Plasma Flow, Change from control (1K1C hypertensive dogs; [8]): -14 ± 12 mL/min | Glomerular Filtration Rate, Change from control (1K1C hypertensive dogs; [8]): 0 ± 7 mL/min | Mean Arterial Pressure, Change from control (1K1C hypertensive dogs; [8]): 0±2 mm Hg | Sodium Excretion, Change from control (1K1C hypertensive dogs; [8]): 30±7 µEq/min | Urine Volume, Change from control (1K1C hypertensive dogs; [8]): -0.07 ± 0.16 mL/min | ANP Excretion, Change from control (1K1C hypertensive dogs; [9]): -0.6 ± 0.4 fmol/min | Cyclic GMP Excretion, Change from control (1K1C hypertensive dogs; [9]): -611 ± 346 pmol/min | Effective Renal Plasma Flow, Change from control (1K1C hypertensive dogs; [9]): -12 ± 11 mL/min | Glomerular Filtration Rate, Change from control (1K1C hypertensive dogs; [9]): 0 ± 4 mL/min | Mean Arterial Pressure, Change from control (1K1C hypertensive dogs; [9]): -1±3 mm Hg | Plasma Renin Activity, Change from control (1K1C hypertensive dogs; [9]): 1.24±0.62 pmol AI/ml/hr | Sodium Excretion, Change from control (1K1C hypertensive dogs; [9]): 30±2 µEq/min | Urine Volume, Change from control (1K1C hypertensive dogs; [9]): -0.02 ± 0.07 mL/min | ANP Excretion (1K1C hypertensive dogs; Control, before treatment): 1.5 ± 0.6 fmol/min | Cyclic GMP Excretion (1K1C hypertensive dogs; Control, before treatment): 1122 ± 389 pmol/min | Effective Renal Plasma Flow (1K1C hypertensive dogs; Control, before treatment): 127 ± 41 mL/min | Glomerular Filtration Rate (1K1C hypertensive dogs; Control, before treatment): 45 ± 10 mL/min | Mean Arterial Pressure (1K1C hypertensive dogs; Control, before treatment): 157±7 mm Hg | Plasma Renin Activity (1K1C hypertensive dogs; Control, before treatment): 0.55±0.07 pmol AI/ml/hr | Sodium Excretion (1K1C hypertensive dogs; Control, before treatment): 18±2 µEq/min | Urine Volume (1K1C hypertensive dogs; Control, before treatment): 0.43 ± 0.16 mL/min | sodium excretion, effect in words (1K1C hypertensive dogs; summary of TABLE 2, 30 µmol/kg iv of each agent, 3 hours): increased | urine volume, effect in words (1K1C hypertensive dogs; summary of TABLE 3, 30 µmol/kg iv of each agent, 3 hours): increased | Urinary excretion of ANP, effect in words (1K1C hypertensive dogs; summary of TABLE 6, 30 µmol/kg iv of each agent): did not affect | PRA, effect in words (1K1C hypertensive dogs; summary of TABLE 8, 30 µmol/kg iv of each agent): significantly increased | mean arterial pressure (MAP), effect in words (1K1C hypertensive dogs; summary of Table 1, 30 µmol/kg iv of each agent, 3 hours): signigicantly reduced
